Results taken from US11186577B2, “Vasopressin receptor antagonists and products and methods related thereto” (BlackThorn Therapeutics, Inc., priority 2017, dated 2021).

Tests used:
[1] = target: human Arginine Vasopressin Receptor 1a (AVPR1a) (Homo sapiens (Human), UniProt P37288); assay: Vasopressin V1A receptor antagonist assay (AVP-evoked calcium, FLIPR, CHO-AVPR1a cells); format: cell-based; settings: read-out: V1a IC50
Method in brief: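 Antagonism measured as reduction of AVP (EC80, set each assay day) calcium response on FLIPR in dye-loaded CHO-AVPR1a cells. Compounds, 3 μM top in 10-point 1:3 dilution, in duplicate, added 15 min before agonist at 37° C.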

[2] = target: human Arginine Vasopressin Receptor V2 (AVPR2) (Homo sapiens (Human), UniProt P30518); assay: Vasopressin V2 receptor antagonist assay (cAMP TR-FRET, 1321N1 cells); format: cell-based
human Arginine Vasopressin Receptor V2 (AVPR2), sequence (P30518 whole entry): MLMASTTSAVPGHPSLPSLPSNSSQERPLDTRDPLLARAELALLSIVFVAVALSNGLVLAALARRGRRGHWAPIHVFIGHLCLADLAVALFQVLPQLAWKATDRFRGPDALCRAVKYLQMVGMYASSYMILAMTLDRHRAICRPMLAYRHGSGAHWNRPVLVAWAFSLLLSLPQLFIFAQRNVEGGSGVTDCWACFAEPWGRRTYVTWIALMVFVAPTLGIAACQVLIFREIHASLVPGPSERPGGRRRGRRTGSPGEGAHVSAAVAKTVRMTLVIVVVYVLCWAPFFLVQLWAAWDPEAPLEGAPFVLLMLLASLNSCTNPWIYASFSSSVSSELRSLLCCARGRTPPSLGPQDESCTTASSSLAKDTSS

human Arginine Vasopressin Receptor 1a (AVPR1a), sequence (P37288 whole entry): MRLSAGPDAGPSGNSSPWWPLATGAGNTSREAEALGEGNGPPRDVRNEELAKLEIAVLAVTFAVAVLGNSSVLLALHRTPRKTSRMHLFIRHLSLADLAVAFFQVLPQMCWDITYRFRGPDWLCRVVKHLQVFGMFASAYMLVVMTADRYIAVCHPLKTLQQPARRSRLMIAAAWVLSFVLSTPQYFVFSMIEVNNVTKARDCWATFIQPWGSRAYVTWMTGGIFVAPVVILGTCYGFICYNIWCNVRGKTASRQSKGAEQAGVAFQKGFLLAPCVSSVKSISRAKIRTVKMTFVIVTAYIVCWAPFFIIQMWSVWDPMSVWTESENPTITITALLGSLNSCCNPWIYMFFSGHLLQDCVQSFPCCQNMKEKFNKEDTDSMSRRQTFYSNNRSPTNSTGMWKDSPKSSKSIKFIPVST

| Compound | IC50 [1] [nM] | IC50 [2] [nM] |
| --- | --- | --- |
| CC(C)N1Cc2cc(Cl)ccc2-n2c(nnc2C2CC3(C2)CN(c2ccccn2)C3)C1 [compound 48] | < 100 | 500 to 1000 |
| CC1c2nnc(C3CC4(C3)CN(c3cnccn3)C4)n2-c2ccc(Cl)cc2CN1C(=O)C1(F)CC1 (stereo not shown) [compound 177] | < 100 | > 1000 |
| CC(C)OC(=O)N1Cc2cc(Cl)ccc2-n2c(C3CC4(C3)CN(c3ncc(F)cn3)C4)nnc2C1C (single isomer, unassigned) [Cpd 201A] | < 100 | > 1000 |
| CC1c2nnc(C3CC4(C3)CN(c3ncc(F)cn3)C4)n2-c2ccc(Cl)cc2CN1C(=O)OC1CC1 (single isomer, unassigned) [Cpd 192A] | < 100 | > 1000 |
| COC(=O)N1Cc2cc(Cl)ccc2-n2c(nnc2C2CC3(C2)CN(c2ccccn2)C3)C1 [compound 70] | < 100 | 100 to 500 |
| CCOC(=O)N1Cc2cc(Cl)ccc2-n2c(C3CC4(C3)CN(c3ccc(F)cn3)C4)nnc2C1C (single isomer, unassigned) [Cpd 169A] | < 100 | > 1000 |
| CCN1Cc2cc(Cl)ccc2-n2c(nnc2C2CC3(C2)CN(c2ccccn2)C3)C1 [compound 45] | < 100 | 100 to 500 |
| CC(C)C(=O)N1Cc2cc(Cl)ccc2-n2c(nnc2C2CC3(C2)CN(c2ccccn2)C3)C1 [compound 71] | < 100 | > 1000 |
| O=C(N1Cc2cc(Cl)ccc2-n2c(nnc2C2CC3(C2)CN(c2cnccn2)C3)C1)C1(F)CC1 [compound 81] | < 100 | > 1000 |
| CC1c2nnc(C3CC4(C3)CN(c3ncccn3)C4)n2-c2ccc(Cl)cc2CN1C(=O)C1(F)CC1 (stereo not shown) [compound 175] | < 100 | > 1000 |
| CCC(=O)N1Cc2cc(Cl)ccc2-n2c(nnc2C2CC3(C2)CN(c2ccccn2)C3)C1 [compound 67] | < 100 | > 1000 |
| CC(C)OC(=O)N1Cc2cc(Cl)ccc2-n2c(C3CC4(C3)CN(c3ncccn3)C4)nnc2C1C (single isomer, unassigned) [Cpd 167A] | 100 to 500 | > 1000 |
| CC1c2nnc(C3CC4(C3)CN(c3ncc(F)cn3)C4)n2-c2ccc(Cl)cc2CN1C(=O)OC(CF)CF (stereo not shown) [compound 194] | < 100 | > 1000 |
| FCCN1Cc2cc(Cl)ccc2-n2c(nnc2C2CC3(C2)CN(c2ccccn2)C3)C1 [compound 59] | < 100 | 500 to 1000 |
| CC(C)N1Cc2cc(Cl)ccc2-n2c(nnc2C2CC3(C2)CN(c2ccc(F)cn2)C3)C1 [compound 50] | < 100 | 100 to 500 |
| CCOC(=O)N1Cc2cc(Cl)ccc2-n2c(nnc2C2CC3(C2)CN(c2ccc(F)cn2)C3)C1 [compound 69] | < 100 | 100 to 500 |
| CC(C)C(=O)N1Cc2cc(Cl)ccc2-n2c(nnc2C2CC3(C2)CN(c2ccc(F)cn2)C3)C1 [compound 63] | < 100 | 500 to 1000 |
| CCOC(=O)N1Cc2cc(Cl)ccc2-n2c(C3CC4(C3)CN(c3ncc(F)cn3)C4)nnc2C1C (stereo not shown) [compound 172] | < 100 | > 1000 |
| CC(C)N1Cc2cc(Cl)ccc2-n2c(nnc2C2CC3(C2)CN(c2cnccn2)C3)C1 [compound 47] | < 100 | > 1000 |
| CCC(=O)N1Cc2cc(Cl)ccc2-n2c(nnc2C2CC3(C2)CN(c2ccc(F)cn2)C3)C1 [compound 72] | < 100 | 100 to 500 |
| O=C(OC1CC1)N1Cc2cc(Cl)ccc2-n2c(nnc2C2CC3(C2)CN(c2ccc(F)cn2)C3)C1 [compound 90] | < 100 | > 1000 |
| CC1c2nnc(C3CC4(C3)CN(c3ccc(F)cn3)C4)n2-c2ccc(Cl)cc2CN1C(=O)OC(CF)CF (single isomer, unassigned) [Cpd 203A] | < 100 | 500 to 1000 |
| COCCN1Cc2cc(Cl)ccc2-n2c(nnc2C2CC3(C2)CN(c2ccccn2)C3)C1 [compound 39, 8-chloro-5-(2-methoxyethyl)-1-(2-(pyridin-2-yl)-2-azaspiro[3.3]heptan-6-yl)-5,6-dihydro-4H-benzo[f][1,2,4]triazolo[4,3-a][1,4]diazepine] | < 100 | > 1000 |
| CC(C)OC(=O)N1Cc2cc(Cl)ccc2-n2c(nnc2C2CC3(C2)CN(C(=O)C2CC2)C3)C1 [compound 153] | < 100 | > 1000 |
| COC(=O)N1Cc2cc(Cl)ccc2-n2c(nnc2C2CC3(C2)CN(c2ccc(F)cn2)C3)C1 [compound 61] | < 100 | 100 to 500 |
| COC(=O)N1Cc2cc(Cl)ccc2-n2c(C3CC4(C3)CN(c3ccc(F)cn3)C4)nnc2C1C (stereo not shown) [compound 142, methyl 8-chloro-1-(2-(5-fluoropyridin-2-yl)-2-azaspiro[3.3]heptan-6-yl)-4-methyl-4H-benzo[f][1,2,4]triazolo[4,3-a][1,4]diazepine-5(6H)-carboxylate] | < 100 | > 1000 |
| CC1c2nnc(C3CC4(C3)CN(c3ncccn3)C4)n2-c2ccc(Cl)cc2CN1C(=O)OC1CC1 (single isomer, unassigned) [Cpd 171B] | 500 to 1000 | > 1000 |
| CC(CF)N1Cc2cc(Cl)ccc2-n2c(nnc2C2CC3(C2)CN(c2ccccn2)C3)C1 (stereo not shown) [compound 58] | < 100 | 500 to 1000 |
| COC(=O)N1Cc2cc(Cl)ccc2-n2c(C3CC4(C3)CN(c3cccc(C)n3)C4)nnc2C1C (stereo not shown) [compound 180] | < 100 | 100 to 500 |
